These results are taken from PMC13327620, “A Deep‐Red‐Absorbing Osmium(II) Complex as a Photosensitizer for Photodynamic Therapy Inducing Immunogenic Cell Death” (Angewandte Chemie (International Ed. in English), 2026).

Where two headings read alike, the source gives them in different places. A value given as a limit tells only on which side of the number the result lay.

Experiment [1] deals with mouse colon adenocarcinoma (CT26) cells. Kind of experiment: Resazurin cell viability assay, (photo)cytotoxicity, normoxia. The class given is cell-based. As for the experimental part: Given that most ICD studies focus on breast, non‐small cell lung carcinoma, and colon cancer, and since ICD was first discovered in mouse colon cancer cells (CT26), we initially tested our compounds on CT26 cells. Cells were incubated with nine different concentrations (mainly from 0.01 to 100 µM) of the compounds for 4 h in the dark. Then, the diluted solutions containing the compounds were replaced by fresh medium, and the cells were either illuminated or kept in the dark for 1 h more. After 2 days, IC50 values (concentration of the agent inhibiting cell growth by 50%) were determined with the resazurin assay, using chlorin e6 (Ce6) and protoporphyrin IX (PpIX) for comparison (Figure S10). The clinically approved chlorin mixture Radachlorin contains ∼80% Ce6, while 5‐aminolevulinic acid (Ameluz and Levulan) and methyl 5‐aminolevulinate (Metvix and Metvixia) serve as precursors of PpIX. Therefore, Ce6 and PpIX were used for comparison purposes.
(100 U ml−1), streptomycin (100 U ml−1), and 1% L-glutamine. […]
All cells were incubated at 37 °C in a humidified atmosphere with 5 % CO2.
Normoxia. The in vitro viability of cells exposed to the complexes was determined using a resazurin assay. C ells were seeded in 96-well plates at densities of 4,000 cells/well for CT26, MC A205 and U-87 MG cells, and 8,000 cells/well for MRC-5 and NIH/3T3 cells. A fter 24 h of growth at 37 °C wit h 5% CO2, the medium was replaced with fresh medium containing various concentrations of the compounds . Following a 4- h incubation in the dark, the medium was refres hed , and the plates were exposed to irradiation usinga LUM OS -BIO photoreactor (At las Photonics).N on- ir rad iated plates were similarly refr eshed with medium and kept in the dark for the same duration. After a 40- h r ecov ery period, a f reshly pr epar ed resazurin solution (0.2 mg/mL) was added to each well, and the plates were left in the dark for 4 h before analysis on a B i o Te k Cytation 5 Cell Imaging Multimode Reader (Agil ent Technologies). […]
On the technique in general: The colour change of resazurin is a common sign of viable cells or microbes.

Another experiment relates to HMGB‐1. Kind of experiment: Immunofluorescence staining of HMGB-1 (release) in CT26 cells. The class given is cell-based, mouse. The following applies: CT26, compounds at IC50, illumination at 740 and 770 nm. As for the experimental part: Scientific, Catalog no.15 5411) at a d ensity of 8,00 0 cells p er well and cultu red fo r 24 h at 37 °C with 5 % CO2. T he cells wer e then treated with a solution of the compounds at a concentration corresponding to the IC50 for 4 h. After refreshing the medium, cells were subjected to irradiation and incubated for an additional 12 h. Subsequently, the cells were fix ed with 4% paraformaldehyde and immunostained with Anti- Calreticulin antibody (Abcam, Catalog no. ab2907) diluted 1/1000 at 4 °C overnight. Cells were then washed three times with PBS, treated with Goat Anti- Rabbit IgG H&L (Alexa […]
temperature in the dark, washed in PBS and treat ed with 10 µg/mL Hoechst for 15 min.
After a final wash, cells were analyzed by confocal microscopy as det ailed above.
Immunofluorescence st aining of HMGB-1
CT26 or MCA205 cells were seeded in Lab -Te k ® Chambered Coverglass System (Thermo Fisher Scientific, Catalog no.155411) at a density of 8,000 cells per well and cultured for 24 h at 37 °C with 5% CO2. The cells were then treated with a solution of the compounds at a concentration corresponding to the IC50 for 4 h. After refreshing the medium, cells were subjected to irradiation and incubated for an additional 12 h.
Subsequently, the cells were fixed with 4% paraformaldehyde, perm eabilized with 0.2% Triton X-100 and immunostained using anti-HMGB1 antibody [EPR3507] […]

`C=Cc1c(C)c2cc3nc(c(CC(=O)O)c4[nH]c(cc5nc(cc1[nH]2)C(C)=C5CC)c(C)c4C(=O)O)[C@@H](CCC(=O)O)[C@@H]3C` [Ce6, chlorin e6]: the PI in experiment [1] (CT26, 480 nm) was above 38; in experiment [1] (CT26, 510 nm), above 70; in experiment [1] (CT26, 540 nm), above 30; in experiment [1] (CT26, 595 nm) it was above 20; in experiment [1] (CT26, 645 nm) it was above 25; in experiment [1] (CT26, 670 nm), above 51. The PI is above 19 in experiment [1] (CT26, 740 nm) and above 4 in experiment [1] (CT26, 770 nm). Besides, the “PI (phototoxicity index, IC50 dark/IC50 light)” value in experiment [1] (CT26, 620 nm) is on record as above 51. Besides, the IC50 entry in experiment [1] (CT26, 770 nm, FWHM 12.5 nm, 15.30 J/cm^2) is “almost non‐phototoxic”; in experiment [1] (Mus musculus, CT26, CT26, dark, normoxia, read-out: IC50 Dark), above 100 µM; in experiment [1] (Mus musculus, CT26, light or radiation study, 1 h, CT26, 620 nm, 1.88 mW/cm^2, 60 min, normoxia, read-out: IC50 620 nm (1 h, 6.75 J/cm^2)), 1.98 ± 0.11 µM; in experiment [1] (Mus musculus, CT26, light or radiation study, CT26, 480 nm, FWHM 10 nm, 3.38 J/cm^2, read-out: IC50), 2.64 ± 0.42 µM; in experiment [1] (Mus musculus, CT26, light or radiation study, CT26, 510 nm, FWHM 15 nm, 2.44 J/cm^2, read-out: IC50) it was 1.43 ± 0.1 µM; in experiment [1] (Mus musculus, CT26, light or radiation study, CT26, 540 nm, FWHM 15 nm, 9.00 J/cm^2, read-out: IC50), 3.33 ± 0.44 µM. The IC50 stood at 5.1 ± 1.44 µM in experiment [1] (Mus musculus, CT26, light or radiation study, CT26, 595 nm, FWHM 10 nm, 3.38 J/cm^2, read-out: IC50); 3.93 ± 0.67 µM in experiment [1] (Mus musculus, CT26, light or radiation study, CT26, 645 nm, FWHM 10 nm, 9.00 J/cm^2, read-out: IC50); 1.97 ± 0.42 µM in experiment [1] (Mus musculus, CT26, light or radiation study, CT26, 670 nm, FWHM 10 nm, 13.50 J/cm^2, read-out: IC50); 5.27 ± 0.46 µM in experiment [1] (Mus musculus, CT26, light or radiation study, CT26, 740 nm, FWHM 10 nm, 12.60 J/cm^2, read-out: IC50); 25.4 ± 3.72 µM in experiment [1] (Mus musculus, CT26, light or radiation study, CT26, 770 nm, FWHM 12.5 nm, 15.30 J/cm^2, read-out: IC50). For the same molecule, in the experiment with HMGB‐1, the “HMGB‐1 release” value is listed as “a minority”.
